How the values were obtained:
Type in all cases: cell-based, rat
[1] = test system: p42/44 MAPK (Thr202/Tyr204); assay: Western blot of MAPK phosphorylation in H4IIE cells; details: for effect of the inhibitor on insulin- and BWE-stimulated phosphorylation of MAPK: preincubation with inhibitor, then insulin or BWE for 6 minutes; for phosphorylation of MAPK, stimulation (fold) relative to the control (Table 6) / p42/44 P-MAPK (Thr202/Tyr204) phosphorylation, stimulation (fold) relative to the control: 6 min, one experiment
Experimental: Tissue culture media, antibiotics, fetal bovine serum (FBS) and Nunc tissue culture plates were purchased from Invitrogen Canada Inc. (Burlington, Ontario, Canada, L7P 1A1). Insulin (Sigma-Aldrich Canada Ltd., Oakville, Ontario, Canada, L6H 6J8) was dissolved in water and added directly to cells at a concentration of 250 nM unless otherwise indicated. The BWE was prepared and analyzed as described in Example 1. Two μL of the BWE were added directly to cells unless otherwise indicated. […] Myo-inositol (Sigma-Aldrich Canada Ltd.) and D-chiro-inositol (Industrial Research Ltd., Wellington, New Zealand) were dissolved in water at an equal concentration to the amounts present in the BWE (Table 3) and 2 μL of each solution (0.1% v/v final concentration) was added directly to cells.
(§1) Rat H4IIE hepatoma cells (American Type Culture Collection, CRL 1548) were cultured following the method disclosed by Yau et al., (1998, Eur. J. Biochem. 253: 91-1). The H4IIE cells were maintained in α-modified Eagle's media containing 10% FBS, 2 mM glutamine, 25 μg·mL^−1 streptomycin and 25 units·mL^−1 penicillin. Cells were plated and grown to 70% confluence. All cells were placed into serum-free medium for 72 h before addition of stimulating agents to ensure entry into a quiescent state.
(§2) Cultures of quiescent H4IIE cells or quiescent FAO cells were placed into 12-well culture dishes containing 2 mL serum-free medium, and then stimulated by direct addition of the inhibitors listed in Table 1 (volumes of additions were 10 μL or less) without replacing the medium. […] The cells in 12-well culture dishes were incubated with stimulating agents for 6 minutes and rinsed with phosphate buffered saline (PBS; 0.9% NaCl, 0.1 M Na3PO4, pH 7.1).
(§3) Cellular protein extracts were prepared by addition of 200 μL 2×SDS/gel loading buffer (0.125 M Tris pH 6.8, 2% SDS, 10% glycerol) to H4IIE cells in 12-well culture dishes. The samples were briefly sonicated, and protein content measured using the BCA protein assay kit. Aliquots containing equal amounts of protein were mixed with bromophenol blue (0.5% (w/v) final concentration) and 2-mercaptoethanol (5% (v/v) final concentration), heated at 95° C. and loaded onto 7.5% or 10% polyacrylamide gels. […] Primary antibodies (diluted 1:1000 in 3% (w/v) BSA) were incubated with the membrane for 60 min at 22° C. Membranes were subsequently washed four times and incubated for an additional 60 min at 1 8-22° C. in 1% (w/v) BSA-TBST with diluted HRP-coupled secondary antibody (1:10 000). HRP was detected using the ECL chemiluminescent system after the membranes had been washed four times.
Quantification of data obtained on film (Kodak X-omat) was accomplished with a GS800 imaging densitometer (Bio-Rad Laboratories) under nonsaturating conditions with local background subtraction. Although multiple exposures were acquired to ensure the absence of film saturation, the experimental figures typically show longer exposures selected specifically for visual presentation and not necessarily used for data analysis. Graphical data are presented as means±SE for a minimum of three replicate samples. […]

[2] = test system: PDK-1 (Ser241); assay: Western blot of PDK-1 phosphorylation in H4IIE cells; details: 6 min, one experiment
Experimental: (§4) Tissue culture media, antibiotics, fetal bovine serum (FBS) and Nunc tissue culture plates were purchased from Invitrogen Canada Inc. (Burlington, Ontario, Canada, L7P 1A1). Insulin (Sigma-Aldrich Canada Ltd., Oakville, Ontario, Canada, L6H 6J8) was dissolved in water and added directly to cells at a concentration of 250 nM unless otherwise indicated. The BWE was prepared and analyzed as described in Example 1. Two μL of the BWE were added directly to cells unless otherwise indicated. This amount was chosen on the basis of equivalence to insulin. Myo-inositol (Sigma-Aldrich Canada Ltd.) and D-chiro-inositol (Industrial Research Ltd., Wellington, New Zealand) were dissolved in water at an equal concentration to the amounts present in the BWE (Table 3) and 2 μL of each solution (0.1% v/v final concentration) was added directly to cells.
as §1, §2, §3
(§5) Quantification of data obtained on film (Kodak X-omat) was accomplished with a GS800 imaging densitometer (Bio-Rad Laboratories) under nonsaturating conditions with local background subtraction. Although multiple exposures were acquired to ensure the absence of film saturation, the experimental figures typically show longer exposures selected specifically for visual presentation and not necessarily used for data analysis. Graphical data are presented as means±SE for a minimum of three replicate samples.

[3] = test system: Raf (Ser259); assay: Western blot of Raf phosphorylation in H4IIE cells; details: 6 min, one experiment
Experimental: as §4, §1, §2, §3, §5

[4] = test system: H4IIE cells; assay: 3H-deoxyglucose uptake by H4IIE cells; details: H4IIE cells; pre-incubated with inhibitor, then insulin
Experimental: Tissue culture media, antibiotics, fetal bovine serum (FBS) and Nunc tissue culture plates were purchased from Gibco-BRL (division of Invitrogen Canada Inc.). Insulin (Sigma-Aldrich Canada Ltd.) was dissolved in water and added directly to cells at a final concentration of 10^−6 M. The buckwheat extract was prepared and analyzed as in Example 1. Two μL of the buckwheat extract were added directly to cells unless otherwise indicated. Myo-inositol (Sigma Aldrich Canada Ltd.) and D-chiro-inositol (Industrial Research Ltd.) were dissolved in water at an equal concentration to the amounts present in the BWE (Table 3) and 2 μL of each solution was added directly to cells.
Rat H4IIE hepatoma cells (American Type Culture Collection, CRL 1548) were cultured as described in Example 3. Briefly, cells were maintained in α-modified Eagle's media containing 10% FBS, 2 mM glutamine, 50 μg·mL^−1 streptomycin and 50 μg·mL^−1 penicillin. Cells were plated and grown to 70% confluence. All cells were placed into serum-free medium for 72 h before addition of stimulating agents to ensure entry into a quiescent state.
^3H-deoxyglucose uptake was assayed using the method disclosed by Harrison et al. (1990, J. Biol. Chem. 265(10):5793-5801). Quiescent H4IIE cells, in 24-well culture dishes containing 1 mL serum-free medium, were washed three times with physiological salt solution (PSS) ([…], pH 7.4). Cells were placed into 0.5 mL PSS and pre-incubated with inhibitors for 10 minutes prior to the 20 minute stimulation with treatments (insulin, BWE, D-CI, MI). For all experiments, insulin was added at a concentration of 10^−6 M whereas 2 μL volumes of the BWE, D-CI, or MI (0.4% v/v final concentration) were added to cells unless otherwise indicated in figures. Sugar uptake was initiated by the addition of ^3H-deoxyglucose to a final assay concentration of 0.1 mM glucose (1 mCi/mL) and the cells were subsequently incubated for 5 minutes at 37° C. After two rapid washes with ice-cold PSS (0.5-1 mL/well), the cells were solubilized with 0.4 mL of 0.1% SDS, and ^3H was detected in 3 mL of EcoLume scintillant (MP Biomedicals Inc., Costa Mesa, Calif., USA, 92626).
Statistical significance between treatments was determined by one-way ANOVA and by Duncan's multiple range test for means testing (SAS v.9.1, SAS Institute Inc., Cary, N.C.). […] Data are expressed as the mean±SE.
Since insulin has the same effect, we compared the ability of BWE, insulin and two insulin-mimetic compounds (D-CI and MI) to stimulate glucose uptake by H4IIE hepatoma cells. […] Radio-labelled deoxyglucose was added to the medium and glucose uptake was determined by the detection of ^3H in cells.
Fractions (˜1.0 ml) from each solvent extraction were collected and assayed for their effects on MAPK activation as described in Example 3. The effects of selected fractions, alone or in combination with insulin, on the uptake of labelled glucose were assessed following the methods described in Example 4. […] The effects of the solvent fractions on H4IIE cells were assessed with 20-min exposure periods after which, sugar uptake was initiated by the addition of ^3H-deoxyglucose to a final assay concentration of 0.1 mM glucose (1 mCi/mL) and the cells were subsequently incubated for 5 minutes at 37° C. After two rapid washes with ice-cold PSS (0.5-1 mL/well), the cells were solubilized with 0.4 mL of 0.1% SDS, and ^3H was detected in 3 mL of EcoLume scintillant. […]

[5] = BWE treatment, 15-min preincubation with PKA/PKC inhibitor (None = BWE alone)
[6] = insulin treatment, 15-min preincubation with PKA/PKC inhibitor (None = insulin alone)
[7] = BWE-stimulated, 15-min preincubation with the inhibitor (None = BWE alone)
[8] = insulin-stimulated, 15-min preincubation with the inhibitor (None = insulin alone)

Molecule	effect of the inhibitor on insulin- and BWE-stimulated phosphorylation of MAPK [1]	phosphorylation of MAPK, stimulation (fold) relative to the control (Table 6) [1, 5] [fold]	phosphorylation of MAPK, stimulation (fold) relative to the control (Table 6) [1, 6] [fold]	PDK-1 (Ser241) phosphorylation, stimulation (fold) relative to the control [2, 7] [fold]	PDK-1 (Ser241) phosphorylation, stimulation (fold) relative to the control [2, 8] [fold]	p42/44 P-MAPK (Thr202/Tyr204) phosphorylation, stimulation (fold) relative to the control [1, 7] [fold]	p42/44 P-MAPK (Thr202/Tyr204) phosphorylation, stimulation (fold) relative to the control [1, 8] [fold]	Raf (Ser259) phosphorylation, stimulation (fold) relative to the control [3, 7] [fold]	Raf (Ser259) phosphorylation, stimulation (fold) relative to the control [3, 8] [fold]	further results
C[C@H]1CCC/C=C/[C@@H]2C[C@H](O)C[C@H]2[C@H](O)/C=C/C(=O)O1 [brefeldin, Brefeldin A]	not involved in this process	–	–	–	–	–	–	–	–	–
Cc1ccc(-c2nn(C(C)(C)C)c3ncnc(N)c23)cc1 [PP1]	required for stimulation of MAPK by the BWE only	–	–	–	–	–	–	–	–	–
Cn1c2ccccc2c2c3c(c4c5ccccc5n(CCC#N)c4c21)CNC3=O [Go6976]	–	4.32	4.68	–	–	–	–	–	–	–
N#C/C(=C/c1ccc(O)c(O)c1)C(=O)NCc1ccccc1 [AG490]	–	–	–	0.89	1.91	12.9	16.4	0.16	0.13	–
O=c1cc(N2CCOCC2)oc2c(-c3ccccc3)cccc12 [LY294002]	–	–	–	0.61	1.40	13.1	10.4	0.08	0.22	–
CC(C)(C)c1cc(C=C(C#N)C#N)cc(Br)c1O [AG1024]	–	–	–	–	2.30	–	16.74	–	0.26	–
COc1ccc2c(c1)c1c3c(c4c5ccccc5n(C)c4c1n2CC(O)CN(C)C)C(=O)NC3=O (stereo not shown) [Go7874]	–	3.10	2.60	–	–	–	–	–	–	–
CC(=O)c1c(O)c(C)c(O)c(Cc2c(O)c3c(c(C(=O)/C=C/c4ccccc4)c2O)OC(C)(C)C=C3)c1O [Rottlerin]	–	3.85	2.46	–	–	–	–	–	–	–
1-butanol	required for stimulation of MAPK by insulin and the BWE	–	–	–	–	–	–	–	–	effect of the inhibitor on insulin-stimulated glucose uptake (FIG. 23) [4]: decreased insulin-stimulated glucose uptake although the effect was not significant
COc1ccc2c(c1)CC[C@@H]1[C@@H]2CC[C@]2(C)[C@@H](NCCCCCCN3C(=O)C=CC3=O)CC[C@@H]12 [U73]	–	–	–	0.49	2.30	8.6	13.4	0.12	0.99	–
